A short description of data set [1]: Cytotoxicity against human HCT15 cells. It counts as functional, cell-based. Conditions: HCT-15.
Data set [2] has as its system T47D. In words: Cytotoxicity against human T47D cells. Type of data set: functional, cell-based.
Data set [3] concerns MDA-MB-468. Nature of the data set: Cytotoxicity against human MDA-MB-468 cells. It counts as functional, cell-based.
The nature of data set [4]: Cytotoxicity against human SKOV3 cells. Conditions: SK-OV-3. Type of data set: functional, cell-based.
The subject of data set [5] is Plasmodium falciparum. Nature of the data set: Antimalarial activity against Plasmodium falciparum. It counts as functional, organism-based.
Data set [6] concerns Trichomonas vaginalis. Nature of the data set: […] activity against Trichomonas vaginalis assessed as growth inhibition after 24 hrs. It counts as functional.
Data set [7] has as its system Human immunodeficiency virus 1. Nature of the data set: Antiviral activity against Human immunodeficiency virus 1. It counts as functional, organism-based.
Data set [8] relates to Candida. Nature of the data set: Antifungal activity against Candida assessed as growth inhibition. It counts as functional.
Data set [9] can be described thus: Elimination half life in iv dosed rat. Conditions: in vivo, read-out: beta t1/2 (converted). Type of data set: ADME, organism-based.
Data set [10] in a line: Elimination half life in iv dosed dog. Conditions: in vivo, read-out: beta t1/2 (converted). It counts as ADME, organism-based, Canis lupus familiaris.
Data set [11] can be described thus: Drug elimination in human patient kidney at starting dose of 9 mg/m2 administered as 5 or 20 mins intravenous infusion on days 1 to 5 every 21 days. It counts as ADME. Particulars: urine, read-out: Drug excretion.
Data set [12] has as its system Rattus norvegicus. In words: Anti-inflammatory activity in Wistar rat at 100 mg/kg assessed as protection against edema formation dosed 1 hr before carrageenan challenge measured at end of 3rd hr by plethysmography. Type of data set: functional.
The test system of data set [13] is Human immunodeficiency virus 1. Nature of the data set: Antiviral activity against HIV1 3B infected in human MT4 cells assessed as inhibition of virus-induced cytopathic effect after 5 days by MTT assay. Particulars: Human immunodeficiency virus 1, 3B, MT4, 120 h. Type of data set: functional, organism-based.
Data set [14] is described as follows: Cytotoxicity against human MT4 cells assessed as reduction cell viability after 5 days by MTT assay. Type of data set: cell-based. (Formazan colour is commonly taken as a measure of viable cells.)
For data set [15], the system named is Mycobacterium tuberculosis. Nature of the data set: Antimycobacterial activity against Mycobacterium tuberculosis H37Rv. Type of data set: functional.
Data set [16] can be described thus: Primary phase half life in im dosed goat. Type of data set: ADME, organism-based, Capra hircus. Conditions: in vivo, read-out: alphat1/2 (converted).
For data set [17], the target named is SRSF protein kinase 1 (Homo sapiens, UniProt Q96SB4). In words: Inhibition of SRPK1 kinase (unknown origin).
Data set [18] deals with Leishmania infantum. Nature of the data set: Leishmanicidal activity against Leishmania infantum. Type of data set: functional, organism-based.
Data set [19] can be described thus: Drug elimination in pig at 50 ppm. It counts as ADME, organism-based, Sus scrofa. Conditions: in vivo, read-out: Drug excretion.
Data set [20] relates to Leishmania amazonensis. Nature of the data set: Antileishmanial activity against Leishmania amazonensis. Type of data set: functional, organism-based.
In data set [21] the test system is Leishmania infantum. In words: Antileishmanial activity against Leishmania infantum. Type of data set: functional, organism-based.

SMILES strings stand for the structures. Values after ≈ are worked out from the molar mass of the structure shown.

SRSF protein kinase 1, sequence (Q96SB4 whole entry): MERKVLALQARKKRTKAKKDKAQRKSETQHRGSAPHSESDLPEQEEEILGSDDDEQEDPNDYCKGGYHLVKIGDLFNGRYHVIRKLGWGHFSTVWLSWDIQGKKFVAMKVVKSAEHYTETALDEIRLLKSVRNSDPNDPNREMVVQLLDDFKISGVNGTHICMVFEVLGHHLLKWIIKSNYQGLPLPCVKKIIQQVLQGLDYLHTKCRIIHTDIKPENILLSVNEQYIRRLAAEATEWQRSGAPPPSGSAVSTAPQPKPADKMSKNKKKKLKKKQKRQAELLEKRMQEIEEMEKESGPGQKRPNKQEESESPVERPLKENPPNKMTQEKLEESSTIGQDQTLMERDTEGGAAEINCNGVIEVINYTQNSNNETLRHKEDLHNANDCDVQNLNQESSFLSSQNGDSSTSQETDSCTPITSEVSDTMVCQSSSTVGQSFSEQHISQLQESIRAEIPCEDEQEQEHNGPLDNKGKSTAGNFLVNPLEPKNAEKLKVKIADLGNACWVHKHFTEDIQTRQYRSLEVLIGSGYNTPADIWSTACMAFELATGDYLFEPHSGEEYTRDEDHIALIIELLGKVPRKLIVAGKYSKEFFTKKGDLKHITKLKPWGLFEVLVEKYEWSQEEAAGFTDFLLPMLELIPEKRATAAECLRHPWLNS

Broadly, the IC50 is the point on the concentration scale where inhibition reaches its midpoint. Take `CCCCCNCc1ccc2c(c1)C(=O)c1nccnc1C2=O`: the half-inhibitory concentration (IC50) in [1] is 50 nM; in data set [2] it was 80 nM; in data set [3], 200 nM; in [4], 400 nM.
In turn, `[O-][n+]1c(Cl)c(OC2CCCCC2)nc2ccc(F)cc21` registered an IC50 in data set [5] of 4100 nM.
The term MIC denotes the least concentration at which growth counts as inhibited. In the case of `Cc1c(NCc2ccc(Cl)c(Cl)c2)[n+]([O-])c2cc(F)c(F)cc2[n+]1[O-]`, the MIC in [6] was 6.25 µg/mL (≈ 16.2 µM).
Broadly, the EC50 is the midpoint of the concentration-response curve. Low readings indicate higher potency in that assay, high ones lower potency in that assay. In data set [7], `Cc1cc2ncc(=O)n(CC(O)CO)c2cc1C` (centres undefined) came in with an EC50 of 0.15 µg/mL (≈ 0.604 µM).
On to `O=c1[nH]c2cc3cccnc3c(Cl)c2nc1CBr`, for which the MIC in data set [8] was determined as 31.2 µg/mL (≈ 96.3 µM).
As for `C[C@@H](Oc1ccc(Oc2cnc3ccc(Cl)cc3n2)cc1)C(=O)O` [R(+)XK469], the figures for the half-life in data set [9] and in data set [10] were 13.5 h and 13.2 h, respectively. The dose excreted in [11] worked out at 7%.
One may read the inhibition in vivo as the drop in the measured response relative to a control, in per cent. In the case of `Cc1nc2ccccc2nc1OCC(=O)N/N=C/c1ccc(Cl)cc1`, the inhibition in vivo at 100 mg/kg in data set [12] stood at 65.9%.
`C=CCCCOc1cnc2cc(C)c(C)cc2n1`: it took 0.22 µg/mL (≈ 0.908 µM) to reach a half-maximal effect in data set [7] (EC50).
Usually CC50 stands for the concentration that lowers cell viability or growth by half. As to `c1ccc(-c2nc3ccccc3nc2-c2ccccc2)cc1`, the IC50 in data set [13] came out at 3.84 µg/mL (≈ 13.6 µM). In addition, the CC50 at 120 h in data set [14] was 15.3 µg/mL (≈ 54.1 µM).
The term IC90 denotes the point of the concentration-response curve where the effect stands at 90%. Read a high IC90 as a need for much substance. For the compound `Cc1c(C(=O)Nc2ccccc2)[n+]([O-])c2cc(Cl)c(Cl)cc2[n+]1[O-]`, the IC90 in data set [15] was less than 6.25 µg/mL.
As for `CC(=O)c1c(C)[n+]([O-])c2ccccc2[n+]1[O-]` [MEQUINDOX], the half-life in data set [16] was 0.28 h.
In turn, `O=C(O)c1ccc2cc3nc(-c4cccs4)c(-c4cccs4)nc3cc2c1` yielded an IC50 in data set [17] of 40 nM.
`N#Cc1c(NC(=O)N2CCN(c3ccc(C(F)(F)F)cc3)CC2)[n+]([O-])c2ccc(Cl)cc2[n+]1[O-]` returned an IC50 in data set [18] of 5700 nM.
In the case of `COC(=O)N/N=C/c1c[n+]([O-])c2ccccc2[n+]1[O-]` [CARBADOX], in data set [19], the dose excreted turned out to be 90%.
In data set [15], `N#Cc1c(Nc2ccc(F)cc2)[n+]([O-])c2ccc(Cl)cc2[n+]1[O-]` registered a concentration for an effect of 90% (IC90) of less than 6.25 µg/mL.
For `CCCNC(=O)c1c(C)[n+]([O-])c2ccc(Cl)cc2[n+]1[O-]`, the 90% effect concentration (IC90) in [15] is less than 0.19 µg/mL.
`N#Cc1c(NC(=O)CCCCl)[n+]([O-])c2ccc(Cl)cc2[n+]1[O-]` yielded an IC50 in data set [20] of 700 nM.
In the case of `N#Cc1c(NC(=O)C2CCCCC2)[n+]([O-])c2ccc(Cl)cc2[n+]1[O-]`, the midpoint of inhibition in [21], the IC50, lay at 2500 nM.
